Measured values from patent US7524823B2, “Macrolides” (Basilea Pharmaceutica AG, priority 2005, dated 2009).
Values after ≈ are worked out from the molar mass of the structure shown.

Columns and labels:
Format in all cases: cell-based
[1] = tested on: Escherichia coli ATCC 25922; assay: MIC by broth microdilution (CAMHB, NCCLS); settings: code C: Escherichia coli ATCC 25922
Protocol: (§1) MIC values for non-anaerobes were obtained by broth microdilution using CAMHB (BBL) according to NCCLS guidelines (National Committee for Clinical Laboratory Standards. Methods for dilution antimicrobial susceptibility tests for bacteria that grow aerobically, 5th ed. Approved standard M7-A6. NCCLS, Wayne, Pa., 2003). Drugs were dissolved in DMSO prior to dispensing into 96-well microtitre plates; the concentration of DMSO in assay wells never exceeded 2% (v/v). CAMHB was supplemented with 5% (v/v) horse serum (Sigma, cat. no. H-1270) in lieu of laked horse blood for cultivation of Streptococcus pneumoniae, and with 5% (v/v) Fildes enrichment (BBL, cat. no. 220810) supernate in lieu of Haemophilus Test Medium and additives for cultivation of Haemophilus influenzae (Pankuch G A, Hoellman D B, Lin G, Bajaksouzian S, Jacobs M R, Appelbaum P C. Activity of HMR 3647 compared to those of five agents against Haemophilus influenzae and Moraxella catarrhalis by MIC determination and time-kill assay. Antimicrob. Agents Chemother. November 1998; 42(11): 3032-4). Activities expressed as the minimal inhibitory concentrations (MICs) (μg/ml) are given in the following Table 3, and the microorganisms used for testing are listed in Table 2 below.

[2] = tested on: Staphylococcus aureus 1086; assay: MIC by broth microdilution (CAMHB, NCCLS); settings: code B: Staphylococcus aureus 1086
Protocol: as §1

[3] = tested on: Staphylococcus aureus ATCC 29213; assay: MIC by broth microdilution (CAMHB, NCCLS); settings: code A: Staphylococcus aureus ATCC 29213
Protocol: as §1

[4] = tested on: Streptococcus pneumoniae 1/1; assay: MIC by broth microdilution (CAMHB + 5% horse serum, NCCLS); settings: code D: Streptococcus pneumoniae 1/1
Protocol: as §1

[5] = tested on: Streptococcus pneumoniae SL199T; assay: as above; settings: code E: Streptococcus pneumoniae SL199T
Protocol: as §1

[6] = tested on: Streptococcus pneumoniae Tupelo; assay: as above; settings: code F: Streptococcus pneumoniae Tupelo
Protocol: as §1

[7] = tested on: Haemophilus influenzae 12214; assay: MIC by broth microdilution (CAMHB + 5% Fildes enrichment, NCCLS); settings: code G: Haemophilus influenzae 12214
Protocol: as §1

[8] = tested on: Haemophilus influenzae QK50; assay: as above; settings: code H: Haemophilus influenzae QK50
Protocol: as §1

[9] = tested on: Propionibacterium acnes EG7NS; assay: MIC by anaerobic broth microdilution (WCB, NCCLS); settings: code I: Propionibacterium acnes EG7NS; anaerobic, 35-37° C., 48 h
Protocol: (§2) MIC values towards strains of propionibacteria were obtained by broth microdilution using WCB (Anaerobe Broth MIC, Difco) according to NCCLS guidelines (National Committee for Clinical Laboratory Standards. Methods for anti-microbial susceptibility testing of anaerobic bacteria, 5th ed.; approved standard. NCCLS publication no. M11-A5. NCCLS, Wayne, Pa., 2001). Microtitre plates were loaded into 7-L GENbox anaerobic incubation jars (BioMérieux, cat. no. 96 128) fitted with anaerobic atmosphere generators (BioMérieux, cat. no. 96 124) and a Dry Anaerobic Indicator Strip (BBL, cat. no. 271051). Under these conditions, an O2 concentration <0.1% was achieved by 2.5 h, and a CO2 concentration >15% by 24 h. MIC values were read after incubation at 35-37° C. for 48 h (Table 3).

[10] = tested on: Propionibacterium acnes SW101T; assay: MIC by anaerobic broth microdilution (WCB, NCCLS); settings: code K: Propionibacterium acnes SW101T, 35-37° C., 48 h
Protocol: as §2

| Compound | MIC [1] [µg/mL] | MIC [2] | MIC [3] [µg/mL] | MIC [4] | MIC [5] [µg/mL] | MIC [6] [µg/mL] | MIC [7] [µg/mL] | MIC [8] [µg/mL] | MIC [9] | MIC [10] [µg/mL] |
| --- | --- | --- | --- | --- | --- | --- | --- | --- | --- | --- |
| CC[C@H]1OC(=O)[C@H](C)[C@@H](O[C@H]2C[C@@](C)(OC)[C@@H](O)[C@H](C)O2)[C@H](C)[C@@H](O[C@@H]2O[C@H](C)C[C@H](N(C)C)[C@H]2O)[C@](C)(OC)C[C@@H](C)C(=O)[C@H](C)[C@H]2[C@H](SCCn3ccc(-c4cccnc4)n3)C(=O)O[C@@]21C [Example 17] | >32 | >32 µg/mL | 1 (≈ 1.03 µM) | <=0.06 μg/ml | 0.5 | 1 | 4 | 4 | <=0.06 μg/ml | 16 (≈ 16.4 µM) |
| CC[C@H]1OC(=O)[C@H](C)[C@@H](O[C@H]2C[C@@](C)(OC)[C@@H](O)[C@H](C)O2)[C@H](C)[C@@H](O[C@@H]2O[C@H](C)C[C@H](N(C)C)[C@H]2O)[C@](C)(OC)C[C@@H](C)C(=O)[C@H](C)[C@H]2[C@H](SCCn3cncn3)C(=O)O[C@@]21C [Example 18] | 32 (≈ 35.6 µM) | >=32 μg/ml | 1 (≈ 1.11 µM) | <=0.06 μg/ml | 2 | 4 | 2 | 2 | <=0.06 μg/ml | >32 |
| CC[C@H]1OC(=O)[C@H](C)[C@@H](O[C@H]2C[C@@](C)(OC)[C@@H](O)[C@H](C)O2)[C@H](C)[C@@H](O[C@@H]2O[C@H](C)C[C@H](N(C)C)[C@H]2O)[C@](C)(OC)C[C@@H](C)C(=O)[C@H](C)[C@H]2[C@H](SCCn3cnc4ccccc43)C(=O)O[C@@]21C [Example 19] | >32 | >32 µg/mL | 1 (≈ 1.05 µM) | <=0.06 μg/ml | 0.5 | 1 | 2 | 2 | <=0.06 μg/ml | 4 (≈ 4.22 µM) |
| CC[C@H]1OC(=O)[C@H](C)[C@@H](O[C@H]2C[C@@](C)(OC)[C@@H](O)[C@H](C)O2)[C@H](C)[C@@H](O[C@@H]2O[C@H](C)C[C@H](N(C)C)[C@H]2O)[C@](C)(OC)C[C@@H](C)C(=O)[C@H](C)[C@H]2[C@H](SCCn3cnc4cncnc43)C(=O)O[C@@]21C [Example 20] | >32 | >32 µg/mL | 1 (≈ 1.05 µM) | <=0.06 μg/ml | 0.5 | 1 | 1 | 1 | <=0.06 μg/ml | 8 (≈ 8.42 µM) |
| CC[C@H]1OC(=O)[C@H](C)[C@@H](O[C@H]2C[C@@](C)(OC)[C@@H](O)[C@H](C)O2)[C@H](C)[C@@H](O[C@@H]2O[C@H](C)C[C@H](N(C)C)[C@H]2O)[C@](C)(OC)C[C@@H](C)C(=O)[C@H](C)[C@H]2[C@H](SCCn3cc(C)c(=O)[nH]c3=O)C(=O)O[C@@]21C [Example 21] | >32 | >32 µg/mL | 2 (≈ 2.09 µM) | <=0.06 μg/ml | 0.5 | 2 | 4 | 4 | <=0.06 μg/ml | 4 (≈ 4.18 µM) |
| CC[C@H]1OC(=O)[C@H](C)[C@@H](O[C@H]2C[C@@](C)(OC)[C@@H](O)[C@H](C)O2)[C@H](C)[C@@H](O[C@@H]2O[C@H](C)C[C@H](N(C)C)[C@H]2O)[C@](C)(OC)C[C@@H](C)C(=O)[C@H](C)[C@H]2[C@H](SCC(=O)Nc3ccc(C)c(C)c3)C(=O)O[C@@]21C [Example 22] | >32 | 32 µg/mL (≈ 33.2 µM) | 2 (≈ 2.07 µM) | <=0.06 μg/ml | 8 | 8 | 8 | 8 | <=0.06 μg/ml | 32 (≈ 33.2 µM) |
| CC[C@H]1OC(=O)[C@H](C)[C@@H](O[C@H]2C[C@@](C)(OC)[C@@H](O)[C@H](C)O2)[C@H](C)[C@@H](O[C@@H]2O[C@H](C)C[C@H](N(C)C)[C@H]2O)[C@](C)(OC)C[C@@H](C)C(=O)[C@H](C)[C@H]2[C@H](SCC(=O)Nc3ccc(F)cc3F)C(=O)O[C@@]21C [Example 23] | >32 | 32 µg/mL (≈ 32.9 µM) | 2 (≈ 2.06 µM) | <=0.06 μg/ml | 2 | 2 | 4 | 4 | <=0.06 μg/ml | 32 (≈ 32.9 µM) |
| CC[C@H]1OC(=O)[C@H](C)[C@@H](O[C@H]2C[C@@](C)(OC)[C@@H](O)[C@H](C)O2)[C@H](C)[C@@H](O[C@@H]2O[C@H](C)C[C@H](N(C)C)[C@H]2O)[C@](C)(OC)C[C@@H](C)C(=O)[C@H](C)[C@H]2[C@H](SCC(=O)Nc3ccc(C(=O)OC)c(OC)c3)C(=O)O[C@@]21C [Example 24] | >32 | >=32 μg/ml | 1 (≈ 0.975 µM) | <=0.06 μg/ml | 4 | 8 | 8 | 8 | <=0.06 μg/ml | >32 |
| CC[C@H]1OC(=O)[C@H](C)[C@@H](O[C@H]2C[C@@](C)(OC)[C@@H](O)[C@H](C)O2)[C@H](C)[C@@H](O[C@@H]2O[C@H](C)C[C@H](N(C)C)[C@H]2O)[C@](C)(OC)C[C@@H](C)C(=O)[C@H](C)[C@H]2[C@H](SCC(=O)Nc3cccc4cccnc34)C(=O)O[C@@]21C [Example 25] | >32 | 16 µg/mL (≈ 16.2 µM) | 1 (≈ 1.01 µM) | <=0.06 μg/ml | 1 | 0.5 | 4 | 4 | <=0.06 μg/ml | 4 (≈ 4.05 µM) |
| CC[C@H]1OC(=O)[C@H](C)[C@@H](O[C@H]2C[C@@](C)(OC)[C@@H](O)[C@H](C)O2)[C@H](C)[C@@H](O[C@@H]2O[C@H](C)C[C@H](N(C)C)[C@H]2O)[C@](C)(OC)C[C@@H](C)C(=O)[C@H](C)[C@H]2[C@H](SCC(=O)c3ccc(N(CC)CC)cc3)C(=O)O[C@@]21C [Example 26] | >32 | >32 µg/mL | 2 (≈ 2.01 µM) | 0.125 µg/mL | >32 | >32 | >32 | 16 | 0.125 µg/mL (≈ 0.126 µM) | >32 |
| CC[C@H]1OC(=O)[C@H](C)[C@@H](O[C@H]2C[C@@](C)(OC)[C@@H](O)[C@H](C)O2)[C@H](C)[C@@H](O[C@@H]2O[C@H](C)C[C@H](N(C)C)[C@H]2O)[C@](C)(OC)C[C@@H](C)C(=O)[C@H](C)[C@H]2[C@H](SCC(=O)c3ccc(OC)cc3OC)C(=O)O[C@@]21C [Example 27] | >32 | >32 µg/mL | 1 (≈ 1.02 µM) | <=0.06 μg/ml | 4 | 4 | 8 | 8 | <=0.06 μg/ml | >32 |
| CC[C@H]1OC(=O)[C@H](C)[C@@H](O[C@H]2C[C@@](C)(OC)[C@@H](O)[C@H](C)O2)[C@H](C)[C@@H](O[C@@H]2O[C@H](C)C[C@H](N(C)C)[C@H]2O)[C@](C)(OC)C[C@@H](C)C(=O)[C@H](C)[C@H]2[C@H](SCC(=O)c3csc4ccccc34)C(=O)O[C@@]21C [Example 28] | >32 | 16 µg/mL (≈ 16.4 µM) | 2 (≈ 2.04 µM) | 0.25 µg/mL | 4 | 4 | 8 | 16 | 0.125 µg/mL (≈ 0.128 µM) | 8 (≈ 8.18 µM) |
